{
  "source": "paper PMC10940318",
  "about": "“Targeted intracellular delivery of dimeric STINGa by two pHLIP peptides for treatment of solid tumors” (Frontiers in Pharmacology, 2024)",
  "key": {"[1]": {"molecular_target": "human serum albumin (HSA) (Homo sapiens, UniProt P02768)", "method": "HSA was initially dissolved to 500 μM in deionized water and further diluted using pH 7.6 phosphate buffer. Dansylamide (DNSA) or dansylglycine (DNSG) (both from Tokyo Chemical Industry) were used as fluorescent markers, which are known to bind to specific sites on HSA. Each well contained 100 μL of sample consisting of the fluorescent marker DNSA or DNSG (1 μM), with different concentrations of pHLIP agents (0, 5, or 10 μM) and concentrations of HSA ranging from 0 μM to 100 μM. Samples were incubated for 2 h at 37°C. […] Fluorescence measurements from each well were performed at 485 nm with excitation at 365 nm at 37°C. As a control, binding of DNSA and DNSG were probed with each agent in absence of HSA. Before the measurements a plate reader optimization test was run. Data were fitted individually and globally using the Michaelis-Menten equation. […] Data was fitted by nonlinear least squares curve fitting procedures employing the Levenberg Marquardt algorithm using Origin 8.5.\nTable S1. Competitive binding assay.\nFigure S8. HSA binding. […] The global fitting was performed with each set of data and the fitting curves are shown as black, blue and red lines."}, "[2]": {"tested_on": "CT26 tumors", "test": "Cytokine levels in tumor and serum by ELISA", "type": "in vivo, Balb/c mice", "method": "To establish levels of cytokines in blood and tumor samples, 5 × 10^4 CT26 cancer cells were injected SQ in 100 µL of growth medium into the right flank of female Balb/c mice. When tumors reached 250–500 mm^3 in volume, the mice received a single IP injection of 300 μM 500 µL 2pHLIP-dMSA or no injections. Animals were euthanized at 6- and 24-h post-injection, blood and tumors were collected. Blood samples were kept for 40 min at RT, centrifuged at 5,000 g for 20 min at +4°C and supernatant (serum) was collected. Tumors were frozen in liquid nitrogen. Both the serum and the tumor tissue samples were kept at −80°C until further processing and analysis. The tumor samples were processed while on ice, using a bullet blender (Next Advance) with 1 mm diameter zirconium silicate beads (Next Advance). The supernatant of the processed tumors was used for enzyme-linked immunoassay (ELISA) assays. Matched antibody pair kits for mouse TNF alpha (Sino Biological), mouse IL-6 (Abcam), mouse IFN gamma (Invitrogen), mouse IFN beta (Bio-Techne), and a precoated mouse IFN alpha kit (Invitrogen) were used. For TNF alpha and IFN beta the capture antibodies were diluted in PBS (Cytiva), while the IL-6 and IFN gamma capture antibodies were diluted in their respective coating buffers. The diluted capture antibodies were incubated in the plates overnight at +4°C and washed the next day with PBS/Tween washing buffer (Sigma-Aldrich). The TNF alpha plate was blocked using 2% BSA (Thermo-Scientific) diluted in washing buffer, the IFN beta plate was blocked using 1% BSA diluted in PBS, while the IFN alpha, IFN gamma, and IL-6 plates were blocked using their respective dilution buffers. Blocking was done for 2 h at RT on an orbital shaker at 200 rpm. After blocking, the plates were washed and then incubated with the diluted tumor and serum samples along with the corresponding standard solutions for each ELISA kit. The samples were incubated for 2 h at RT on an orbital shaker at 200 rpm. The TNF alpha plate was incubated for 1 h at RT with a diluted detection antibody conjugated with horseradish peroxidase (HRP). The IL-6, IFN alpha, IFN beta, and IFN gamma plates were incubated for 1 h at RT with a diluted detection antibody conjugated with biotin followed by incubation for 1 h at RT with their respective diluted HRP-streptavidin conjugates. All plates were washed and incubated with 3,3′,5,5′-tetramethylbenzidine (TMB) (Invitrogen) and peroxide solution mixed at a ratio of 1:1 (Thermo Scientific) for up to 20 min, then a stop solution (10% H2SO4) was added to the plates. The signal from the wells was quantified by absorbance measured at 450 nm using a Bio-Rad iMark microplate reader. Antibody standards were used to plot calibration curves."}, "[3]": {"test": "Stability in mouse plasma", "details": "BALB/c mouse plasma, 200 µM, 0-24 h at 37°C, methanol precipitation, HPLC C18, UV 220/280/325 nm", "method": "Plasma proteins were precipitated by methanol (1:5 volume ratio of plasma to methanol) and centrifuged for 10 min at […]. The supernatant was collected and analyzed by HPLC using a Zorbax SB-C18 4.6 × 250 mm, 5 μm column with a gradient from 20% to 80% acetonitrile in water containing 0.05% TFA. Chromatograms were recorded at 220 nm, 280 nm and 325 nm."}, "[4]": {"tested_on": "CT26 murine colorectal cancer tumors", "test": "Treatment of CT26 tumors in mice", "type": "in vivo, Balb/c mice", "details": "CT26 tumors 100-150 mm3, female Balb/c, followed 65 days", "method": "For the treatment of CT26 tumors, 5 × 10^4 CT26 murine colorectal cancer cells (ATCC, CRL-2638) were injected subcutaneously (SQ) in 100 μL of growth medium into the right flank of female Balb/c mice ranging in age from 7 to 9 weeks (Envigo RMS, Inc.). […] The compounds were dissolved in DMSO as a stock solution and transferred to PBS (vehicle). The residual DMSO in the final solution injected into animals was less than 2%. Tumor volume and body weight were measured 3 times per week throughout the study. Measurements of tumors were performed using calipers, and the tumor volume (V) was calculated with the formula: V=0.52∙L∙W^2 where L is the length and W is the width of the measured tumor. Mice were removed from the study and euthanized when the tumor volume was greater than 2,000 mm^3."}, "[5]": {"details": "single IP injection 300 µM 500 µL, 6 and 24 h"}},
  "note": "Where “and” joins values, the source holds several entries; their conditions need not be identical. Equal values may be shown once.",
  "data": [
    {"sequence": "ADQDNPWRAYLDLLFPTDTLLLDLLWCG [2pHLIP-dMSA]", "values": [
      {"measurement": "binding to HSA (in words)", "setting": "[1]", "result": "strong binding"},
      {"measurement": "IL-6 level in blood (Figure 4D, in words)", "setting": "[2]; 6 h after single IP injection 300 µM 500 µL, returned to normal at 24 h", "result": "slight increase"},
      {"measurement": "increase of TNF-α level in tumors", "setting": "[2]; 6 h after single IP injection 300 µM 500 µL, vs untreated mice", "result": 23, "unit": "fold"},
      {"measurement": "TNF-α level in tumors (in words)", "setting": "[2]; 24 h after single IP injection 300 µM 500 µL", "result": "fell to a normal level"},
      {"measurement": "level of IFN-α in tumors and serum (in words)", "setting": "[2]; [5]", "result": "did not change much"},
      {"measurement": "level of IFN-γ in tumors and serum (in words)", "setting": "[2]; [5]", "result": "did not change much"},
      {"measurement": "TNF-α level in serum (in words)", "setting": "[2]; single IP injection 300 µM 500 µL, treated and untreated mice", "result": "insignificant"},
      {"measurement": "IFN-β level in serum (in words)", "setting": "[2]; single IP injection 300 µM 500 µL, two orders of magnitude lower than in tumors", "result": "slight increase"},
      {"measurement": "increase of tumor level of IFN-β", "setting": "[2]; single IP injection 300 µM 500 µL, vs untreated mice", "result": 8, "unit": "fold"},
      {"measurement": "stability in mouse plasma (in words)", "setting": "[3]", "result": "low"},
      {"measurement": "mice survived out of treated, lower dose", "setting": "[4]; two IP injections of 100 µM 500 µL (l.d.) on days 1 and 3", "result": "4 out of 10 and 4/10"},
      {"measurement": "mice with tumor eradicated / survived out of treated", "setting": "[4]; two IP injections of 300 µM 500 µL on days 1 and 3", "result": "7/10"}
    ]}
  ]
}
